Data taken from patent publication US4933332A, “11-desoxy-17-α-hydroxycorticosterone derivatives” (priority 1988, dated 1990).
“And” between values parts separate entries of the source, which are not always exact repeats. Equal entries are not always repeated.

Legend:
[1] = tested on: Small intestine adenocarcinoma AKATON; test: Duration of the antitumor effect, small intestine adenocarcinoma AKATON; type: in vivo, mice and rats
Text: (§1) For the study of the antitumor activity of the compounds according to the present invention use was made of regrafted hemoblastoses, grafted solid tumors, induced and spontaneous tumors of mice and rats. The following models were used: L 1210, P-388, hemocytoblastosis La, MOPC-406, viral lympholeukosis Mazurenko LMC-1, Ca-755, mammary carcinoma metastasizing into lungs KML, alveolar mammary cancer RMK-1, small intenstine adenocarcinoma AKATON, large intestine adenocarcinoma AKATOL, Lewis lung carcinoma LL, lung adenocarcinoma RL-67, hepatomae G-22c, G-60, G-61, sarcomae S-37 and S-180, DMBA (dimethylbenzanthracene)-induced and spontaneous mammary tumors, and […] (dimethylhydrazine)-induced tumors of the large intestine.
(§2) The studies were carried out on line mice and their first-generation hybrids, as well as on mongrel mice and rats.
(§3) The compounds were administered to the animals hypodermally in kernel oil. For the purpose of comparison, a known hormonocytostatic estracyte (estra-1,3,5-(10)treine-3,17β-diol-3N-[bis-(2-chloroethyl)carbamate-17-sodium phosphate] was used which was administered hypodermally in a solution of a 0.9% NaCl, chlorphenacyl and chloroambucyl which were administered intraperitoneally in a 10% solution of ethanol, sarcolysine (β-[p-di(2-chloroethyl)aminophenyl]-α-alanine hydrochloride)--intraperitoneally in a 0.9% solution of NaCl, prednisolone (pregnadiene-1,4-triol-11β,17α,21-dione-3,20)--per os in a starch size.
(§4) Criteria of the antitumor activity of the compounds according to the present invention are: extension of the lifespan of the animals (ELA, %) and tumor growth inhibition (TGI, %). [formula] T--average lifespan of the treated animals; C--average lifespan of the control animals. [formula] O--average tumor volume in the group of treated animals; K--average tumor volume in the group of control animals.

[2] = Toxicological study, limiting toxicity
[3] = tested on: Lung adenocarcinoma RL-67; test: Duration of the antitumor effect, lung adenocarcinoma RL-67; type: in vivo, mice and rats
Text: as §1, §2, §3, §4

[4] = tested on: Alveolar mammary cancer RMK-1; test: Antitumor effect on grafted alveolar mammary cancer RMK-1; type: in vivo, mice and rats; details: in vivo
[5] = tested on: MOPG-406; test: Antitumor effect on grafted hemoblastoses (MOPC-406), extension of lifespan; type: in vivo, mice and rats; details: in vivo
[6] = tested on: Viral leukosis Mazurenko LMC-1; test: Antitumor effect on grafted hemoblastoses (LMC-1), extension of lifespan; type: in vivo, mice and rats; details: in vivo
[7] = tested on: Ca-755; test: Antitumor effect on grafted solid tumor Ca-755; type: in vivo, mice and rats; details: in vivo
[8] = tested on: S-180; parameters: species or system mice and rats; details: in vivo
[9] = tested on: Large intestine adenocarcinoma AKATOL; test: Antitumor effect on grafted large intestine adenocarcinoma AKATOL; type: in vivo, mice and rats; details: in vivo
[10] = tested on: La; parameters: species or system mice and rats; details: in vivo
[11] = tested on: DMBA-induced mammary tumors of rats; test: Effect on DMBA-induced breast tumors in repeated treatment courses; type: in vivo
Text: as §1, §3, §4
In the case of using spontaneous or induced tumors, by means of carcinogenic substances, the criteria of the antitumor effect are: TGI, % or decrease in the tumor size, %, as compared to its initial value. The treatment of spontaneous and induced tumors was initiated after achieving, by these tumors, of a particular size excluding the possibility of a spontaneous regression.

[12] = tested on: DNA of sarcoma S-37 cells; test: Cross-linking and ruptures in DNA of tumoral cells (alkaline saccharose gradient sedimentation)
[13] = tested on: DNA of normal (spleen) cells; test: Regeneration of injured DNA in normal tissue vs tumor tissue; details: compared with tumor tissue
[14] = tested on: Breast carcinoma metastasizing into lungs KML; test: Duration of the antitumor effect, breast carcinoma KML; type: in vivo, mice and rats
Text: as §1, §2, §3, §4

[15] = tested on: L 1210; test: Antitumor effect on grafted hemoblastoses (L 1210), extension of lifespan; type: in vivo, mice and rats; details: in vivo, sc
[16] = in vivo; details: mouse
[17] = tested on: mice; details: mouse, in vivo
[18] = tested on: receptors of glucocorticoids in grafted tumors of animals (RL-67, G-60, G-61, G-22c, Ca-755, S-37, AKATOL, AKATON); test: Inhibition of specific combining of [^3 H]-dexamethazone in grafted tumors of animals; type: binding
Text: The inhibition, thereby, of a specific combining of [^3 H]-dexamethazone in tumors of animals reaches 70-100%. 11-Desoxy-17-α-hydroxy-21-[p-di(2-chloroethyl)aminophenylacetate] corticosterone also reacts with cytoplasmatic receptors of glucocorticoids in tumors in human beings.

[19] = tested on: animals; test: Estral response in animals; details: in vivo
Text: The hormonal effect of 11-desoxy-17α-hydroxy-21-[p-di-(2-chloroethyl)aminophenylacetate] corticosterone is associated with exhibition of a glucocorticoidal activity thereby.

[20] = tested on: Hepatoma G-22c; test: Antitumor effect on grafted hepatoma G-22c; type: in vivo, mice and rats; details: in vivo
[21] = tested on: grafted hemoblastoses and solid tumors; test: Antitumor activity, summary over the tumor models; type: in vivo, mice and rats
Text: as §1, §2, §3, §4

[22] = tested on: Lewis lung carcinoma LL; test: Antitumor effect on grafted Lewis lung carcinoma LL; type: in vivo, mice and rats; details: in vivo

C[C@]12CCC(=O)C=C1CC[C@@H]1[C@@H]2CC[C@@]2(C)[C@H]1CC[C@]2(O)C(=O)COC(=O)Cc1ccc(N(CCCl)CCCl)cc1 [11-desoxy-17α-hydroxy-21-[p-di(2-chloroethyl)-aminophenylacetate] corticosterone]
Extension of the lifespan ([1]; 15 mg/kg/24 h × 5, days 2-6): 46%
Tumor growth inhibition ([1]; 15 mg/kg/24 h × 5, days 2-6, day 15 of experiment): 66%
Tumor growth inhibition ([1]; 15 mg/kg/24 h × 5, days 2-6, day 22 of experiment): 55%
Tumor growth inhibition ([1]; 15 mg/kg/24 h × 5, days 2-6, day 29 of experiment): 46%
limiting toxicity ([2]; degree depends on the dose): gastroenteral and neurotoxicity (diarrhea, vomition, convulsions)
hematotoxicity ([2]; mouse, in vivo): does not restrict the administration
Extension of the lifespan ([3]; 45 mg/kg × 1, day 2): 27%
Tumor growth inhibition ([3]; 45 mg/kg × 1, day 2, day 15 of experiment): 81%
Tumor growth inhibition ([3]; 45 mg/kg × 1, day 2, day 22 of experiment): 82%
Tumor growth inhibition ([3]; 45 mg/kg × 1, day 2, day 29 of experiment): 80%
Maximum tumor growth inhibition [4]: 59%
Extension of the lifespan of the animals (ELA) [5]: 76%
Extension of the lifespan of the animals (ELA) [6]: 344%
cure [6]: 33%
Extension of the lifespan [7]: 73%
Maximum tumor growth inhibition [7]: 99%
Tumor growth inhibition [7]: 92% and 73% and 82%
Maximum tumor growth inhibition ([7]; 45 mg/kg): 94%
Maximum tumor growth inhibition [8]: 93% and 92%
Maximum tumor growth inhibition [9]: 98%
Extension of the lifespan of the animals (ELA) [10]: 105%
Increased lifespan ([11]; DMBA-induced, rats, 15 mg/kg/24 h × 5, 2 courses, 5 weeks interval): 18%
Decrease or increase (+) of the tumor, % of the initial one ([11]; DMBA-induced, rats, 15 mg/kg/24 h × 5, 2 courses, 5 weeks interval, week 1): 33%
Decrease or increase (+) of the tumor, % of the initial one ([11]; DMBA-induced, rats, 15 mg/kg/24 h × 5, 2 courses, 5 weeks interval, week 2): 32%
Decrease or increase (+) of the tumor, % of the initial one ([11]; DMBA-induced, rats, 15 mg/kg/24 h × 5, 2 courses, 5 weeks interval, week 3): 11%
Decrease or increase (+) of the tumor, % of the initial one ([11]; DMBA-induced, rats, 15 mg/kg/24 h × 5, 2 courses, 5 weeks interval, week 4): 24%
Decrease or increase (+) of the tumor, % of the initial one ([11]; DMBA-induced, rats, 15 mg/kg/24 h × 5, 2 courses, 5 weeks interval, week 5): +26%
Decrease or increase (+) of the tumor, % of the initial one ([11]; DMBA-induced, rats, 15 mg/kg/24 h × 5, 2 courses, 5 weeks interval, week 6): 23%
Decrease or increase (+) of the tumor, % of the initial one ([11]; DMBA-induced, rats, 15 mg/kg/24 h × 5, 2 courses, 5 weeks interval, week 7): +3%
Decrease or increase (+) of the tumor, % of the initial one ([11]; DMBA-induced, rats, 15 mg/kg/24 h × 5, 2 courses, 5 weeks interval, week 8): 13%
reduction in size of induced tumors in breasts ([11]; compared to the size prior to the treatment): causes reduction in size of induced and spontaneous tumors
number and duration of retention of cross-linking in DNA molecules of S-37 cells [12]: superior to chlorophenacyl
regeneration of injured DNA in normal tissue [13]: starts earlier than in the tumor tissue
Extension of the lifespan ([14]; 45 mg/kg × 1, day 10): 57%
Tumor growth inhibition ([14]; 45 mg/kg × 1, day 10, day 15 of experiment): 80%
Tumor growth inhibition ([14]; 45 mg/kg × 1, day 10, day 22 of experiment): 53%
Tumor growth inhibition ([14]; 45 mg/kg × 1, day 10, day 29 of experiment): 61%
Extension of the lifespan of the animals (ELA) [15]: 31%
LD50 [16]: 80 mg/kg
MTD [16]: 44 mg/kg
toxicity lower than that of chlorophenacyl [17]: 3 times
reaction with receptors of glucocorticoids in grafted tumors ([18]; RL-67, G-60, G-61, G-22c, Ca-755, S-37, AKATOL, AKATON): reacts with receptors of glucocorticoids in grafted tumors of animals
inhibition of specific combining of [^3 H]-dexamethazone ([18]; tumors of animals): 70-100%
estral response [19]: short-time estral response
Extension of the lifespan [20]: 65%
Maximum tumor growth inhibition [20]: 80%
Tumor growth inhibition [20]: 80% and 68% and 57%
inhibits growth of substantially all tumors ([21]; Table 2 summary, grafted solid tumors): 80-99%
duration of tumor growth inhibition after completion of the treatment course ([21]; Table 3 summary): ≥ 1 month
extension of the lifespan of the animals as compared to the control ([21]; Table 3 summary): 27-73%
antitumor effect compared with reference agents ([21]; in vivo): considerably superior, as regards its activity on numerous models, over the known alkylating preparation sarcolysine
Maximum tumor growth inhibition [22]: 81%
Extension of the lifespan ([22]; 15 mg/kg): 38%
Tumor growth inhibition ([22]; 15 mg/kg): 76% and 56% and 39%
Maximum tumor growth inhibition ([22]; 45 mg/kg): 90%
